In patent US11484484B2, “Composition for alleviating skin barrier dysfunction” (LG HOUSEHOLD & HEALTH CARE LTD., priority 2018, dated 2022):
“Also recorded” adds a separate entry of the source.

How the values were obtained:
[1] = system: reconstructed human epidermis model (Neoderm-E); test: Epidermal thickness in 3D artificial skin model; assay type: cell-based; details: 1% cream formulation; for Increase relative to Control: epidermal thickness ratio
Method: (§1) A reconstructed human epidermis model (Neoderm-E, Tego Science, Korea) was transferred to a 6-well plate and stabilized in 2 mL of a growth medium (Tego Science, Korea) for 24 hours, and the cream-type hydroxycinnamic acid, isoamyl acetate, and betaine were applied to the artificial skin at each concentration. After culturing for 24 hours, the hydroxycinnamic acid, isoamyl acetate, and betaine cream applied on the artificial skin were washed with phosphate buffer saline (PBS), and then the tissue was disrupted using a RIPA buffer (50 mM Tris-HCl, pH 7.4, 150 mM NaCl, 1% NP-40) containing Protease Inhibitor Cocktails (ThermoFisher Scientific, USA) by sonication. The tissue-extracted proteins were analyzed for the autophagic activity of keratinocytes in the tissue by western blotting analysis. 1% creams of hydroxycinnamic acid, isoamyl acetate, and betaine were applied on the artificial skin, followed by H&E staining after 1 week to confirm the increase in thickness of the epidermis.
Next, the cream formulations of 1% betaine, 1% hydroxycinnamic acid, and 1% isoamyl acetate were applied to the artificial skin, and changes in the thickness of the epidermis were measured after […] staining of the artificial skin tissue.

HaCaT cells = assay type: cell-based; details: 10 μg/mL, 50 μg/mL and 100 μg/mL
LC3-II, p62/SQSTM1 = test: Autophagosome synthesis mechanism: co-treatment with bafilomycin A1, LC3-II and p62 western blotting; assay type: cell-based, human
Description: (§2) HaCaT cells were inoculated into a 60 mm plate at a concentration of 8×10^5 cells and independently treated with hydroxycinnamic acid, isoamyl acetate, and betaine the next day, and then the cells were eluted with a 5× lysis buffer to obtain proteins. Cell debris was removed by centrifugation and quantified using a BCA protein assay kit (Pierce, USA). The cell-extracted proteins were isolated using a 4%-15% SDS-PAGE gel (Bio-Rad, USA) and transferred to a nitrocellulose membrane (Life Technologies, New Zealand). The cells were then blocked with a TBST buffer containing 3% BSA for 1 hour and thereupon reacted in a buffer solution containing primary antibodies at 4° C. for 1 day. The membrane was washed with TBST, reacted with peroxidase-conjugated secondary antibodies, and then colored using enhanced chemiluminescence (Amersham, UK), and the immune-reactive bands were confirmed with the Fusion FX 5 image system (Vilber Lourmat, France).
Therefore, in order to investigate a mechanism by which the autophagosomes are increased by way of betaine treatment, the cells were treated with bafilomycin A1 (Baf. A1), which is known as a lysosomal activity inhibitor, together with betaine, and the degree of LC3-II production was confirmed by western blotting analysis.

LC3-II = LC3-II production by western blotting in keratinocytes; assay type: cell-based, human; details: HaCaT cells
Description: as §2
The cytotoxicity of betaine on keratinocytes was confirmed, and the results of Experimental Example 1 were confirmed by the western blotting analysis of Example 4 to determine the degree of production of LC3-II converted as it entered into the double membranes of the autophagosomes. […] Additionally, the cells were treated with 50 μg/mL betaine and the amount of LC3-II conversion per hour was observed.

AKT-mTOR-S6 pathway = test: Phosphorylation of AKT-mTOR-S6 pathway by western blotting; assay type: cell-based, human; details: HaCaT cells
Description: as §2
In previous studies, betaine—homocysteine methyltransferase (BHMT) has been reported to reduce the amount of homocysteine in a betaine-dependent manner. In one study, homocysteine was reported to promote the activity of mTORC1, an enzyme that inhibits autophagy. Thus, in order to find a mechanism by which autophagy is promoted by betaine, an experiment was conducted to identify related upstream signaling factors. […]

[2] = system: reconstructed human epidermis model (Neoderm-E); test: LC3-II production in 3D artificial skin model; assay type: cell-based; details: 1% cream formulation, after 24 hours
Method: as §1
In order to confirm whether the differentiation in the epidermis is promoted by the effect of promoting autophagy by way of betaine, hydroxycinnamic acid, and isoamyl acetate, a 3D artificial skin model was used as in Example 5. […] After 24 hours, the degree of LC3-II production was measured through western blotting analysis to determine whether autophagy in the epidermis was promoted.

[3] = system: HaCaT cells introduced with the GFP-LC3 vector; test: Screening for autophagy activation: GFP-LC3 puncta quantification; assay type: cell-based, human; details: for proportion of cells with increased GFP-LC3 puncta vesicles: fluorescence microscopy
Method: A GFP (green fluorescence protein)-conjugated microtubule-binding protein 1 light chain 3 (LC3) expression vector (Cell Biolabs, USA) was introduced into HaCaT cells using Lipofectamine 2000 (Invitrogen, USA), which is a gene transfer reagent, and the resultant was cultured for 12 hours in a condition containing 10% FBS and then treated with candidate compounds expected to promote autophagy, which was selected from a library of single compounds derived from natural substances, at each concentration in the medium. Subsequently, the evaluation was performed by fluorescence microscopy (Leica Microsystems, USA). In order to quantify the induction of autophagy, 100 GFP-positive cells in which puncta autophagosomes were formed (punctae=5) were counted using fluorescence microscopy. In order to improve the barrier function by promoting epidermal differentiation through the activation of autophagy, which is reduced due to aging or external stimuli, a search was conducted starting from a library of single compounds derived from natural substances for those that promote autophagic activity of keratinocytes. Specifically, as in the method of Example 3, candidate compounds expected to promote autophagy were treated to HaCaT cells introduced with the GFP-LC3 vector. Thereafter, the number of cells with increased GFP-LC3 puncta vesicles in the cytoplasm was increased as GFP was conjugated to LC3, which was converted into a membrane-bound form when autophagy was induced in each cell, was compared.

[4] = general description of the substance; cited from earlier work

**Q.** For C[N+](C)(C)CC(=O)[O-] [betaine, trimethylglycine], which “Thickness of Epidermis” value [1] is on record?
**A.** 74 μm

**Q.** And the “epidermal thickness increase compared to the control group” value [1]?
**A.** 19%

**Q.** What about the “Increase relative to Control” value [1] of the same compound?
**A.** 1.19

**Q.** What about the cytotoxicity (HaCaT cells) of the same compound?
**A.** no cytotoxicity was observed

**Q.** What about the “amount of p62/SQSTM1 (p62) protein” value (LC3-II, p62/SQSTM1; betaine treatment, western blotting) of the same compound?
**A.** reduced; also recorded: decrease

**Q.** And the “amount of LC3-II with bafilomycin A1 together with betaine compared to betaine alone” value (LC3-II, p62/SQSTM1; co-treatment with lysosomal activity inhibitor bafilomycin A1)?
**A.** further increased

**Q.** What about the “amount of LC3-II conversion, from 12 hours” value (LC3-II; 50 μg/mL, 12 hours) of the same compound?
**A.** the amount of conversion increased

**Q.** What about the “amount of LC3-II conversion, after 24 hours” value (LC3-II; 50 μg/mL, 24 hours) of the same compound?
**A.** the highest conversion was observed; also recorded: conversion mostly occurred

**Q.** And the “amount of LC3-II conversion, until 6 hours” value (LC3-II; 50 μg/mL, until 6 hours)?
**A.** a significant increase was not observed

**Q.** What about the “amount of LC3-II by concentration” value (LC3-II; 10, 50, 100 μg/mL, western blotting) of the same compound?
**A.** increased as the concentration increased

**Q.** What about the “mTOR signals (degree of phosphorylation of the AKT-mTOR-S6 pathway)” value (AKT-mTOR-S6 pathway) of the same compound?
**A.** not possible to observe a significant difference; also recorded: no significant difference

**Q.** And the “autophagy (degree of LC3-II production) in the epidermis” value [2]?
**A.** autophagy was increased

**Q.** And the “number of cells with increased GFP-LC3 puncta vesicles, increase compared to the untreated group” value [3]?
**A.** 18.75%

**Q.** What about the “proportion of cells with increased GFP-LC3 puncta vesicles” value [3] of the same compound?
**A.** 25%

**Q.** For CC(=O)OCCC(C)C [isoamyl acetate], which “Thickness of Epidermis” value [1] is on record?
**A.** 85 μm

**Q.** What about the “epidermal thickness increase compared to the control group” value [1] of the same compound?
**A.** 37%

**Q.** What about the “Increase relative to Control” value [1] of the same compound?
**A.** 1.37

**Q.** And the solubility [4]?
**A.** not well soluble in water, but soluble in alcohol and organic solvents

**Q.** And the “autophagy (degree of LC3-II production) in the epidermis” value [2]?
**A.** autophagy was increased

**Q.** And the “proportion of cells with increased GFP-LC3 puncta vesicles” value [3]?
**A.** 16.4%
